Patent US8372406B2, “Antitumoral and antiviral peptides” (priority 2004, dated 2013)

What was measured:
leucocytes of a human = test: Interferon in vitro synthesis by human leucocytes (interferonogenic activity); type: cell-based; settings: 0.01-10 microgram/ml, 24 hours, 6 donated blood samples
[1] = system: mice tumor syngeneic graft; test: Growth of mice tumor syngeneic graft (alloferon research); settings: mouse, in vivo
tumor cells = test: In vitro effect of alloferon on tumor cell proliferation; type: cell-based; settings: depending on concentration in cultural media
[2] = system: R388D1 cells (lymphoid neoplasm of a mouse); test: Clonogenic activity of tumor cells, interaction with cyclophosphamide; type: cell-based; settings: clones counted after 7 days; for influence upon the cloning process (clonogenic activity): taken separately
R388D1-type tumor cells = test: In vitro influence on tumor cells proliferation (mass culture, cell counts); type: cell-based, mouse
Description: Object of instant experiments is the comparative analysis of influence of allostatin and alloferon on tumor cells proliferation. Effects of allostatin-1 and alloferon-1 in concentrations 0.001, 0.01, 0.1, 1, and 10 microgram per ml on proliferative activity in a mass culture of R388D1-type tumor cells were compared. 5000 cells suspended in 2 ml of […] medium were seed into wells of 24-socket plates. Medium used for the experiments comprises 5% fetal calf serum produced by firm “Biolot”. Preparations were introduced into wells in 0.2 ml of the sane medium immediately after inoculation, and, in control, equivalent amount of the medium was introduced without medications. Number of cells in 1 ml of incubating medium was estimated by means of hemocytometric camera. Average number of cells in 1 ml of incubating medium after 21, 44, 99 and 144 hours after beginning of the experiment was estimated on the base of 3 independent measurements.
FIG. 3 presents a typical view of allostatin and alloferon influence on growth dynamics of tumor cell population. As an evaluation indicator of anti-proliferative activity of the medication, the value of a growth multiplicity of the population for 90 hours was selected, which value is determined as a ratio of a number of cells in a well in the beginning and at the end of the incubation time. […]

[3] = system: tumor cells of the syngeneic line R388D1; test: Antitumoral action on transplanted tumors in mice; type: in vivo, mouse (line DBA-1)
Description: Each of laboratory mouse (line DBA-1) was subcutaneously injected by 3000 tumor cells of the syngeneic line R388D1. Next day mice were separated into 4 experimental groups. Mice of the first group have got only allostatin in a subcutaneous way in a dosage on 25 microgram at 4, 11 and 18 day after tumor cell transplantation. Second group has got a combination of cytostatic agents, cyclophosphamide (0.56 mg), doxorubicine (0.036 mg) and vincrystine (1.05 microgram) on the day of transplantation and after 7, 14 and 21 days. Third group has got allostatin and combination of cytostatic agents in the same way. Mice of the fourth group (control group) were injected by the solvent (0.9% NaCl) in the same days.

For “alloferon: Known immunomodulating peptide, SEQ ID NO 12; closest analogue, histidine and valine in positions 6 and 11 (HGVSGHGQHGVHG; Alloferon-1; listed as Calliphora vicina)”, the “interferonogenic activity (allostatin vs alloferon)” value (leucocytes of a human) was “have no significant difference”, the “growth of mice tumor syngeneic graft” value [1] was “depresses the growth” and the “proliferation of tumor cells” value (tumor cells) was “may both inhibit (at high concentrations) and stimulate (at low concentrations)”.

`O=P1(N(CCCl)CCCl)NCCCO1` (stereo not drawn) [cyclophosphamide, reference compound] was tested, and the “influence upon the cloning process (clonogenic activity)” value [2] was “Neither cyclophosphamide, nor allostatin taken separately, had a significant influence”.

“allostatin: Linear 13-amino-acid peptide, SEQ ID NO 1; differs from alloferon-1 by tryptophan at position 6 and threonine at position 11 (HGVSGWGQHGTHG; Synthetic construct designed on the basis of the peptides SEQ ID NO 2-12 comparison)” was tested, and the “growth of the tumor cell population” value (R388D1-type tumor cells; 10 microgram/ml, over the observation period) was “almost completely stopped the growth”, the “anti-proliferative activity relative to alloferon (growth multiplicity of the population)” value (R388D1-type tumor cells; concentrations of 0.001-1 mkg/ml, growth multiplicity for 90 hours) was 3-7 times and the “clonogenic activity of tumor cells” value ([2]; allostatin in combination with cyclophosphamide) was “significantly decreased a clonogenic activity of tumor cells, proportionally to allostatin dose”. For the same compound, the “influence upon the cloning process (clonogenic activity)” value [2] was “Neither cyclophosphamide, nor allostatin taken separately, had a significant influence”, the “mice with formed tumors during observation period” value ([3]; allostatin 25 microgram s.c. (days 4, 11, 18) combined with cytostatics (cyclophosphamide, doxorubicine, vincrystine)) was 40% and the tumor formation ([3]; allostatin or cytostatics given separately, DBA-1 mice, 3000 R388D1 cells subcutaneously) was “tumors were formed after some delays, and moderate part of animals has not exhibited tumor formation”. For the same compound, the antitumoral action ([3]; combination of allostatin and cytostatics) was “strong and in the most cases irreversible antitumoral action” and the “interferonogenic activity (allostatin vs alloferon)” value (leucocytes of a human) was “have no significant difference”.
